Data: BindingDB's records for doi:10.1016/j.bioorg.2016.07.008 (Universiti Teknologi Mara, 2016)

Target: T1, Beta-glucuronidase (Homo sapiens, UniProt P08236)
T1 sequence (P08236 whole entry): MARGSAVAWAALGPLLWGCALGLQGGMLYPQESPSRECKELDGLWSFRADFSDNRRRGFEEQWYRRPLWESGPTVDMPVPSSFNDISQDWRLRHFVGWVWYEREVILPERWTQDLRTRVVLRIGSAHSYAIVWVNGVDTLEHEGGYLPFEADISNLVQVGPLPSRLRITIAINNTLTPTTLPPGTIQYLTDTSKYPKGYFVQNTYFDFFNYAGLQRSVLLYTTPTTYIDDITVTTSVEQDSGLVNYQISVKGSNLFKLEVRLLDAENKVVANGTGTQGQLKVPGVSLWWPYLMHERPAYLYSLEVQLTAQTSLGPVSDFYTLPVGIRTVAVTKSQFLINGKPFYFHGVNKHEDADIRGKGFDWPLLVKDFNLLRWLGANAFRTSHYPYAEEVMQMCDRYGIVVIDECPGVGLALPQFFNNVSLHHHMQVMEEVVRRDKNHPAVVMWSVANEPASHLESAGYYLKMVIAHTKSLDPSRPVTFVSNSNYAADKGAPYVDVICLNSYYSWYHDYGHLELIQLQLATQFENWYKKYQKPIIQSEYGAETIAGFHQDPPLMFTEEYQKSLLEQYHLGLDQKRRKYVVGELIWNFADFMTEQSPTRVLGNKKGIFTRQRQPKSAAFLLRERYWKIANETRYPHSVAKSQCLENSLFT
Experiment: β-Glucuronidase Bioassay
Experimental: The total reaction volume was 250 µL. The reaction mixture contained 185 µL of 0.1 M acetate buffer, 5 µL of test compound solution, 10 µL of enzyme solution was incubated at 37 °C for 30 min. […] All assays were run in triplicate.

Row | SMILES | IC50 [µM]
1 | O=C(NNC(=S)Nc1ccc(Br)cc1)c1ccc(C(c2c[nH]c3ccccc23)c2c[nH]c3ccccc23)cc1 [N-(4-Bromophenyl)-2-(4-(di(1H-indol-3-yl)methyl)benzoyl)hydrazinecarbothioamide (7)] | 33.2
2 | Cc1ccc(NC(=S)NNC(=O)c2ccc(C(c3c[nH]c4ccccc34)c3c[nH]c4ccccc34)cc2)cc1 [2-(4-(Di(1H-indol-3-yl)methyl)benzoyl)-N-(p-tolyl)hydrazinecarbothioamide (5)] | 15
3 | COc1cccc(NC(=S)NNC(=O)c2ccc(C(c3c[nH]c4ccccc34)c3c[nH]c4ccccc34)cc2)c1 [2-(4-(Di(1H-indol-3-yl)methyl)benzoyl)-N-(3-methoxyphenyl)hydrazinecarbothioamide (15)] | 28.1
4 | O=C(NNC(=S)Nc1cccc(Br)c1)c1ccc(C(c2c[nH]c3ccccc23)c2c[nH]c3ccccc23)cc1 [N-(3-Bromophenyl)-2-(4-(di(1H-indol-3-yl)methyl)benzoyl)hydrazinecarbothioamide (13)] | 21.4

Next, values leading:

Row | IC50 [µM] | SMILES
5 | 11.6 | COc1ccc(NC(=S)NNC(=O)c2ccc(C(c3c[nH]c4ccccc34)c3c[nH]c4ccccc34)cc2)cc1 [2-(4-(Di(1H-indol-3-yl)methyl)benzoyl)-N-(4-methoxyphenyl)hydrazinecarbothioamide (9)]
6 | 14.7 | Cc1cccc(NC(=S)NNC(=O)c2ccc(C(c3c[nH]c4ccccc34)c3c[nH]c4ccccc34)cc2)c1 [2-(4-(Di(1H-indol-3-yl)methyl)benzoyl)-N-(m-tolyl)hydrazinecarbothioamide (11)]
7 | 9.4 | COc1ccccc1NC(=S)NNC(=O)c1ccc(C(c2c[nH]c3ccccc23)c2c[nH]c3ccccc23)cc1 [2-(4-(Di(1H-indol-3-yl)methyl)benzoyl)-N-(2-methoxyphenyl)hydrazinecarbothioamide (18)]
8 | 12 | O=C(NNC(=S)Nc1ccc([N+](=O)[O-])cc1)c1ccc(C(c2c[nH]c3ccccc23)c2c[nH]c3ccccc23)cc1 [2-(4-(Di(1H-indol-3-yl)methyl)benzoyl)-N-(4-nitrophenyl)hydrazinecarbothioamide (10)]
